Laboratory results: article PMC6609034, “Unraveling the role of the secretor antigen in human rotavirus attachment to histo-blood group antigens” (PLoS Pathogens, 2019)

Key:
VP8* P[8] = test: ELISA-like binding assay to biotinylated HBGAs; parameters: species or system human rotavirus; details: biotinylated PAA glycan 2 μg/ml, VP8* 10 μg/ml
Source text: A panel of biotinylated sugar antigens including Le^a, Le^b, Le^c (lacto-N-biose; LNB), H type-1, H type-2 and blood group A and B trisaccharides were purchased from Glyconz (Fig 1 and S1 Table). These glycans are biotinylated neoglyconjugates of a poly[N-(2-hydroxyethyl)acrylamide] (PAA) with a size from 30 to 50 KDa. This forms a flexible polymer ideal for a multivalent presentation of glycans. Immobilized streptavidin F96 black plates (Nunc) were coated with the biotinylated oligosaccharides (2 μg/ml) in milli-Q water and incubated during 1 hour at 37°C. After functionalization the plates were washed once with PBS containing 0.05% of Tween 20 (PBS-T) and the VP8* proteins were added (10 μg/ml) and incubated at 4°C overnight. After three washes with PBS-T, a rabbit polyclonal antibody anti GST (1:1,000) (Abcam) was added and the plates were incubated one hour at 37°C. Then, the plates were washed three times with PBS-T and incubated for 1 h at 37°C with 1:10,000 dilution of horseradish peroxidase (HRP)-conjugated goat anti-rabbit (Abcam). After three washes with PBS-T, the binding was detected using QuantaBlue reagent (ThermoFisher) kit, as recommended by the manufacturer. Fluorescence units were registered by a MultiScan microplate reader. All the binding assays were performed in triplicate.

[1] = target: VP8* from the lineage IV strain (P[8]LIV); test: SPR interaction of VP8* with immobilized HBGAs; format: binding, human rotavirus
Experimental: (§1) The affinity assays were based on SPR and performed in a Biacore T100 instrument (GE Healthcare). H1 PAA-biotin and LNB PAA-biotin were diluted to a concentration of 1 mg/ml in water and captured with streptavidin present in a SA sensor chip (GE Healthcare). H1 was immobilized in channel 2 (630 RU) of the sensor chip and LNB was immobilized in channel 4 (624 RU). The channels 1 and 3 were used as the reference surfaces for channels 2 and 4, respectively. The immobilization process was performed by conditioning the sensor chip surface with three consecutive 1-minute injections of 1 M NaCl 50 mM NaOH before biotinylated ligands were immobilized at a flow rate of 15 μl/min. The affinity assays of VP8* polypeptides to biotinylated sugars were performed at 10°C using 1X HBS-EP^+ buffer (0.01 M HEPES pH 7.4, 0.15 M NaCl, 3 mM EDTA, 0.005% Surfactant P20), a flow rate of 5 μl/min with 2700 seconds of contact time and a dissociation time of 1800 seconds. The regeneration step consisted in a wash step with 10 mM Glycine-HCl pH 2 for 20 seconds at the same flow rate. The assays were performed with purified VP8* at different concentrations (45; 137; 411; 1,234; 3,703; 11,111; 33,333; 100,000 and 200,000 nM). Each run included three blanks without sample. The affinity data were obtained after analysis of sensorgrams performed with the BIAevaluation 2.0 software (GE Healthcare). Since multivalent oligosaccharides are immobilized on a sensor chip surface, avidity and rebinding effects can take place and apparent affinity constants (Kda) are calculated with this experimental setup. Kda values were obtained from the steady-state kinetics experiment as the ligand concentration needed to achieve a half-maximum binding at equilibrium. The experiments were made in triplicate. Graphical representation of signal/concentration curves were plotted using GraphPad Prism 6 for MacOsX.

[2] = target: VP8* from Rotarix strain (lineage I); test: SPR interaction of VP8* with immobilized HBGAs; format: binding, human rotavirus
Experimental: as §1

P[8]c M4(Ile173Val) VP8* = target: T1, P[8]c M4(Ile173Val) VP8* (Rotavirus A, UniProt A0A0S0VKY7, I110V); test: SPR apparent affinity of VP8* for immobilized HBGAs; format: binding, human rotavirus; details: for Kd: PAA-biotin glycan immobilized on SA chip, VP8* as analyte, 10°C, ± standard deviation, read-out: Kda (apparent affinity constant)
T1 sequence (A0A0S0VKY7 1-161 I110V): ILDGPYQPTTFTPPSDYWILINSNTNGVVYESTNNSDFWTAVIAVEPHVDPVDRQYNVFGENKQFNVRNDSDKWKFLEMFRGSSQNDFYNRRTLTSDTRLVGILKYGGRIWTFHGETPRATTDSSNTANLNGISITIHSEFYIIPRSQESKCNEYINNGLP
Source text: (§2) Selected residues in the GST::VP8* P[8] were replaced for alanine or valine according to the structural data of the LNB binding site. Four mutants (M1–M4) were constructed using a Quick-Change site-directed mutagenesis kit (Stratagene) and appropriate oligonucleotides (S5 Table), and the DNA changes were confirmed by DNA sequencing. Mutant M1, M2 and M3 contained changes in the codons for tryptophan 174, arginine 209 and glutamic 212 residues, respectively, that introduced an alanine at each position. Mutant M4 substituted isoleucine 173 by valine.
as §1, with “The affinity data were obtained after analysis of sensorgrams performed with the BIAevaluation 2.0 software (GE Healthcare).” left out, “Kda values were obtained from the steady-state kinetics experiment as the ligand concentration needed to achieve a half-maximum binding at equilibrium. The experiments were made in triplicate. Graphical representation of signal/concentration curves were plotted using GraphPad Prism 6 for MacOsX.” left out

[3] = system: P[8]c VP8* mutant W174A (M1); test: SPR binding of VP8* mutant; parameters: species or system human rotavirus
Source text: as §2, §1

[4] = system: P[8]c VP8* mutant E212A (M3); test: SPR binding of VP8* mutant; parameters: species or system human rotavirus
Source text: as §2, §1

[5] = system: P[8]c VP8* mutant R209A (M2); test: SPR binding of VP8* mutant; parameters: species or system human rotavirus
Source text: as §2, §1

[6] = target: T2, VP8* P[8]c (clinical isolate, lineage III) (Rotavirus A, UniProt A0A0S0VKY7); test: SPR apparent affinity of VP8* for immobilized HBGAs; format: binding, human rotavirus; details: PAA-biotin glycan immobilized on SA chip, VP8* as analyte, 10°C, ± standard deviation, read-out: Kda (apparent affinity constant)
T2 sequence (A0A0S0VKY7 1-161): T1 sequence (A0A0S0VKY7 1-161 I110V)
Experimental: as §1

VP8* P[8]Wa (lineage I) = target: T3, VP8* P[8]Wa (lineage I) (Rotavirus A, UniProt P11193); test: as above; format: binding, human rotavirus; details: PAA-biotin glycan immobilized on SA chip, VP8* as analyte, 10°C, ± standard deviation, read-out: Kda (apparent affinity constant)
T3 construct: amino acids 64–224 from the VP4 protein of rotavirus; GST (N); made in house; host or cells: E. coli BL21 (DE3)
T3 sequence (P11193 64-224): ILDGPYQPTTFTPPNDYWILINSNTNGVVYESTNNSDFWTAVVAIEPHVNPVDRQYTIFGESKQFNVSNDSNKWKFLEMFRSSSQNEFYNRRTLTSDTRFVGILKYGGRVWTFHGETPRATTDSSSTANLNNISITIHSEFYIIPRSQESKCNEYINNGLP
Experimental: as §1

Row | SMILES | binding (ELISA-like) (VP8* P[8]) | interaction by SPR [1] | interaction by SPR [2] | Kd (P[8]c M4(Ile173Val) VP8*) [µM] | Kda of VP8 I173V compared to the wild-type protein (P[8]c M4(Ile173Val) VP8*; higher than wild-type P[8]c) [fold] | binding by SPR [3] | binding by SPR [4] | binding by SPR [5] | Kd [6] [µM] | Kd (VP8* P[8]Wa (lineage I)) [µM]
1 | CC(=O)NC1C(O)OC(CO)C(O)C1OC1OC(CO)C(O)C(O)C1OC1OC(C)C(O)C(O)C1O (stereo not drawn) [H1, Fuc-α1,2-Gal-β1,3-GlcNAc] | recognized | too low to be determined | too low to be determined | 39 | 1.4 | lost their ability to interact | lost their ability to interact | lost their ability to interact | 27.9 | 80.2
2 | CC(=O)NC1C(O)OC(CO)C(O)C1OC1OC(CO)C(O)C(O)C1O (stereo not drawn) [LNB, Gal-β1,3-GlcNAc] | recognize | too low to be determined | too low to be determined | 49.4 | – | lost their ability to interact | lost their ability to interact | lost their ability to interact | 52.1 | 66.5
